Tests used:
[1] = system: KRAS G12D mutant human metastatic pancreatic adenocarcinoma cells AsPC-1; assay: 3D cell proliferation inhibition assay, AsPC-1; format: cell-based; settings: 7 days, CTG
Method: (§1) Inhibition of 3D cell proliferation by the compounds was investigated on KRAS G12C mutant human non-small cell lung cancer cells NCI-H358 (ATCC or Stem Cell Bank, Chinese Academy of Sciences), KRAS G12D mutant human metastatic pancreatic adenocarcinoma cells AsPC-1 (ATCC), KRAS G12V mutant human lung adenocarcinoma cells NCI-H441 (ATCC), and KRAS G13D mutant human colorectal adenocarcinoma epithelial cells DLD-1 (ATCC). The specific procedures were as follows:
(§2) 200 nL of compound solution diluted in a gradient was added to corresponding microwells of a 384-well low-adsorption microwell plate (Corning, 3657) using an Echo sonic pipetting system (Labcyte, Echo 550), so that the final concentration of the test compound in the reaction system was in a range of 20000 nM-0.008 nM. Then 40 μL of cells at a certain density were added to the corresponding microplate. In addition to test wells for the test compounds, both a DMSO control well and a medium control well were set, with the DMSO control well containing DMSO and cells and the medium well containing only medium. After sample loading, the plate cover was applied, and the 384-well low-adsorption microplate was incubated in an incubator at 37° C. with 5% carbon dioxide for 7 days. After 7 days, the microplate was taken out, and 40 μL of CTG reagent (Promega, G9683) was added to each well. The plate was incubated at room temperature for 30 min and read on a microplate reader EnVision using the chemiluminescence program. The inhibition rates of the compounds at each concentration were calculated by the formula for the percentage inhibition of cell proliferation: inhibition rate %=(mean value of DMSO control group−single concentration reading value of compound)/(mean value of DMSO control group−mean value of medium control group)×100, and then nonlinear curve fitting was performed by GraphPad Prism 8 in the logarithmic concentration-inhibition rate to obtain the IC50 values of the compounds.

[2] = system: KRAS G12V mutant human lung adenocarcinoma cells NCI-H441; assay: 3D cell proliferation inhibition assay, NCI-H441; format: cell-based; settings: 7 days, CTG
Method: as §1, §2

[3] = system: KRAS G13D mutant human colorectal adenocarcinoma epithelial cells DLD-1; assay: 3D cell proliferation inhibition assay, DLD-1; format: cell-based; settings: 7 days, CTG
Method: as §1, §2

[4] = system: KRAS G12C mutant human non-small cell lung cancer cells NCI-H358; assay: 3D cell proliferation inhibition assay, NCI-H358; format: cell-based; settings: 7 days, CTG
Method: as §1, §2

SOS1 protein = biological target: T1, SOS1 protein (Homo sapiens, UniProt Q07889); assay: SOS1 degradation assay (Western blot), NCI-H358 cells; format: cell-based; set-up: The degradation of SOS1 by the compounds was investigated on KRAS G12C mutant human non-small cell lung cancer cells NCI-H358; host or cells: NCI-H358 (human cancer cell lines); settings: SOS1 degradation, NCI-H358 cells, 24 h, Western blot
T1 sequence (Q07889 1-1333): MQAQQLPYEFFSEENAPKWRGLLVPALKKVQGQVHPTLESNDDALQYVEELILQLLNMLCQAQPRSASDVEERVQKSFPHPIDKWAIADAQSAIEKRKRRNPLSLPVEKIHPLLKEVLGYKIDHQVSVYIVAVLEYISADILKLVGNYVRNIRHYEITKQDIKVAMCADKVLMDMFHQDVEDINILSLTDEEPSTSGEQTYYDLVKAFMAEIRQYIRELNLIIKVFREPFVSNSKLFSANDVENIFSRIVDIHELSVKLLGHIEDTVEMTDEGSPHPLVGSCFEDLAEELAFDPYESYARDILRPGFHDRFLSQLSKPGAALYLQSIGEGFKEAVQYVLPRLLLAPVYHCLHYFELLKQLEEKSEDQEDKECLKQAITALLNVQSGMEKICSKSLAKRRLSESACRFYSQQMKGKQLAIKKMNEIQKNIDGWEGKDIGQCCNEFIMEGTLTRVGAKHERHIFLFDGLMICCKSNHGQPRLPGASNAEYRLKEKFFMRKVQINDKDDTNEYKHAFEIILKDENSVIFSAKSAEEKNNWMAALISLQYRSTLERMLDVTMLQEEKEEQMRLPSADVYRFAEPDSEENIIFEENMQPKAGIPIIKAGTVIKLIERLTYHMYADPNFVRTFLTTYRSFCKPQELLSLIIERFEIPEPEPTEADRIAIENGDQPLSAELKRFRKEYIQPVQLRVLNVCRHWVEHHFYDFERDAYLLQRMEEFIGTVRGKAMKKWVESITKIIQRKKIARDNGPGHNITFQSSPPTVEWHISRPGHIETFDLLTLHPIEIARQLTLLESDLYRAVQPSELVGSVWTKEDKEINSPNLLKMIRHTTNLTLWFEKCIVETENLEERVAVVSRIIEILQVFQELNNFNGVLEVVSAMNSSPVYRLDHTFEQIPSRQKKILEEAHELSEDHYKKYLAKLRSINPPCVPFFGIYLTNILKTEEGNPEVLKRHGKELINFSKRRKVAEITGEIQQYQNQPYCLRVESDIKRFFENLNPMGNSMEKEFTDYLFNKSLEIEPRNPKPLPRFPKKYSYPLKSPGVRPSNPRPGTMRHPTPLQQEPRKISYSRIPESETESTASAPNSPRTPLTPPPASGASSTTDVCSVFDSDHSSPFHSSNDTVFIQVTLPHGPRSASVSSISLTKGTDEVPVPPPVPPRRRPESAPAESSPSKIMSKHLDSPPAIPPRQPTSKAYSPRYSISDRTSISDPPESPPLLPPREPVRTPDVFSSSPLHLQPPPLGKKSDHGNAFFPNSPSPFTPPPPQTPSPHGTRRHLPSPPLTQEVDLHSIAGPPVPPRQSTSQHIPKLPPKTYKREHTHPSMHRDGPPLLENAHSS
Summary of the method: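 SOS1 degradation was assessed by densitometry of Western blots, relative to untreated controls, after 24 h compound exposure (0.03–3000 nM final, 37 °C, 5% CO2) of cells seeded at 5×10^5/well. Log concentration–response fitting gave DC50 and Dmax.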

KRAS-G12C/SOS1 = biological target: T2, KRAS-G12C/SOS1 (Homo sapiens, UniProt Q07889); assay: KRAS-G12C/SOS1 binding assay (HTRF); settings: inhibition of KRAS-G12C/SOS1 binding
T2 construct: purchased Cisbio 63ADKOOOCB16PEG
T2 sequence (Q07889 1-1333): T1 sequence (Q07889 1-1333)
Summary of the method: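 HTRF competition assay with Tag1-SOS1 and Tag2-KRAS-G12C (10 μM GTP). Compounds at 10000 nM-0.04 nM final (0.5% DMSO), incubated 15 min at 25° C, then anti-tag Tb3+/XL665 antibodies added for 3 h on ice. The 665/620 nm ratio was compared with control and IC50 derived by nonlinear fit.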

IC50 [1] | IC50 [2] | IC50 [3] | IC50 [4] | DC50 (SOS1 protein; read-out: NCI-H358 (G12C) DC50) | Dmax (SOS1 protein; read-out: NCI-H358 (G12C) Dmax) | IC50 (KRAS-G12C/SOS1) | SMILES
50 to 100 nM | ≤ 15 nM | 15 to 30 nM | ≤ 15 nM |  |  |  | COc1cc2nc(C)nc(N[C@H](C)c3cc(N)cc(C(F)(F)F)c3)c2cc1C1CCC(C(=O)N2CCN(CC3CCC4(CC3)CCN(C(=O)c3ccc(OC)c(N5CCC(=O)NC5=O)c3)CC4)CC2)CC1 (stereo partly drawn) [Example 20, 1-(5-(9-((4-((1R,4R)-4-(4-(((R)-1-(3-amino-5-(trifluoromethyl)phenyl)ethyl)amino)-7-methoxy-2-methylquinazolin-6-yl)cyclohexane-1-carbonyl)piperazin-1-yl)methyl)-3-azaspiro[5.5]undecane-3-carbonyl)-2-methoxyphenyl)dihydropyrimidine-2,4(1H,3H)-dione]
 |  |  |  | 100 to 500 nM | 50 to 80% | ≤ 15 nM | [2H]C1([2H])CC(OCC2CCN(C(=O)[C@H]3CC[C@H](c4cc5c(N[C@H](C)c6cc(N)cc(C(F)(F)F)c6)nc(C)nc5cc4OC)CC3)CC2)CC([2H])([2H])N1C(=O)c1ccc(Cl)c(N2CCC(=O)NC2=O)c1 [Example 45, 1-(5-(4-((1-((1R,4R)-4-(4-(((R)-1-(3-amino-5-(trifluoromethyl)phenyl)ethyl)amino)-7-methoxy-2-methylquinazolin-6-yl)cyclohexane-1-carbonyl)piperidin-4-yl)methoxy)piperidine-1-carbonyl-2,2,6,6-d4)-2-chlorophenyl)dihydropyrimidine-2,4(1H,3H)-dione]
